Laboratory results: the NIST ThermoML archive (doi:10.1016/j.jct.2007.07.005)

Assay: xn = mol fraction of the nth substance listed
Conditions: Fluid (supercritical or subcritical phases), vibrating tube

CCCCCO [pentan-1-ol] + O=C=O
Conditions	mass density [kg/m3]
362.59 K, 3010 kPa, x2 = 0	762.29
362.59 K, 3998 kPa, x2 = 0	763.28
362.59 K, 5006 kPa, x2 = 0	764.25
362.59 K, 6013 kPa, x2 = 0	765.23
362.59 K, 7014 kPa, x2 = 0	766.21
362.59 K, 8007 kPa, x2 = 0	767.16
362.59 K, 9020 kPa, x2 = 0	768.1
362.59 K, 10006 kPa, x2 = 0	769.02
362.59 K, 10991 kPa, x2 = 0	769.93
362.59 K, 12025 kPa, x2 = 0	770.87
362.59 K, 13008 kPa, x2 = 0	771.76
362.59 K, 13998 kPa, x2 = 0	772.62
362.59 K, 15017 kPa, x2 = 0	773.51
362.59 K, 16000 kPa, x2 = 0	774.37
362.59 K, 17013 kPa, x2 = 0	775.24
362.59 K, 18032 kPa, x2 = 0	776.11
362.59 K, 19003 kPa, x2 = 0	776.9
362.59 K, 20030 kPa, x2 = 0	777.77
362.59 K, 20987 kPa, x2 = 0	778.55
362.59 K, 22033 kPa, x2 = 0	779.4
362.59 K, 23000 kPa, x2 = 0	780.2
362.59 K, 24031 kPa, x2 = 0	781.02
362.59 K, 25026 kPa, x2 = 0	781.82
362.64 K, 10025 kPa, x2 = 0.3624	777.81
362.64 K, 11003 kPa, x2 = 0.3624	779.19
362.64 K, 12003 kPa, x2 = 0.3624	780.55
362.64 K, 12022 kPa, x2 = 0.4651	773.96
362.64 K, 13017 kPa, x2 = 0.3624	781.9
362.64 K, 13060 kPa, x2 = 0.4651	776.14
362.64 K, 14013 kPa, x2 = 0.3624	783.21
362.64 K, 14031 kPa, x2 = 0.4651	778.14
362.64 K, 15047 kPa, x2 = 0.4651	780.2
362.64 K, 15050 kPa, x2 = 0.3624	784.56
362.64 K, 16009 kPa, x2 = 0.3624	785.79
362.64 K, 16038 kPa, x2 = 0.4651	782.15
362.64 K, 17020 kPa, x2 = 0.4651	784.05
362.64 K, 17038 kPa, x2 = 0.3624	787.08
362.64 K, 17996 kPa, x2 = 0.3624	788.26
362.64 K, 18020 kPa, x2 = 0.4651	785.95
362.64 K, 19025 kPa, x2 = 0.3624	789.49
362.64 K, 19043 kPa, x2 = 0.4651	787.85
362.64 K, 20005 kPa, x2 = 0.3624	790.66
362.64 K, 20038 kPa, x2 = 0.4651	789.76
362.64 K, 21006 kPa, x2 = 0.3624	791.85
362.64 K, 21016 kPa, x2 = 0.4651	791.43
362.64 K, 22040 kPa, x2 = 0.3624	793.05
362.64 K, 22046 kPa, x2 = 0.4651	793.2
362.64 K, 22994 kPa, x2 = 0.3624	794.14
362.64 K, 23026 kPa, x2 = 0.4651	794.9
362.64 K, 24043 kPa, x2 = 0.3624	795.34
362.64 K, 24056 kPa, x2 = 0.4651	796.64
362.64 K, 25004 kPa, x2 = 0.3624	796.42
362.66 K, 3020 kPa, x2 = 0.0816	763.81
362.66 K, 3996 kPa, x2 = 0.0816	764.91
362.66 K, 4993 kPa, x2 = 0.0816	765.97
362.66 K, 6014 kPa, x2 = 0.0816	767.08
362.66 K, 7003 kPa, x2 = 0.0816	768.13
362.66 K, 8000 kPa, x2 = 0.0816	769.18
362.66 K, 9015 kPa, x2 = 0.0816	770.22
362.66 K, 10003 kPa, x2 = 0.0816	771.21
362.66 K, 11015 kPa, x2 = 0.0816	772.24
362.66 K, 12001 kPa, x2 = 0.0816	773.21
362.66 K, 13063 kPa, x2 = 0.0816	774.24
362.66 K, 14005 kPa, x2 = 0.0816	775.13
362.66 K, 15014 kPa, x2 = 0.0816	776.09
362.66 K, 16024 kPa, x2 = 0.9216	573.29
362.66 K, 16035 kPa, x2 = 0.0816	777.05
362.66 K, 17029 kPa, x2 = 0.0816	777.98
362.66 K, 17029 kPa, x2 = 0.9216	602.35
362.66 K, 18005 kPa, x2 = 0.0816	778.87
362.66 K, 18035 kPa, x2 = 0.9216	625.49
362.66 K, 19005 kPa, x2 = 0.9216	644.28
362.66 K, 19061 kPa, x2 = 0.0816	779.82
362.66 K, 19993 kPa, x2 = 0.0816	780.66
362.66 K, 20065 kPa, x2 = 0.9216	661.85
362.66 K, 21022 kPa, x2 = 0.0816	781.57
362.66 K, 21055 kPa, x2 = 0.9216	676.21
362.66 K, 22016 kPa, x2 = 0.9216	688.72
362.66 K, 22027 kPa, x2 = 0.0816	782.43
362.66 K, 23003 kPa, x2 = 0.0816	783.28
362.66 K, 23071 kPa, x2 = 0.9216	701.08
362.66 K, 23748 kPa, x2 = 0.9216	708.43
362.66 K, 23994 kPa, x2 = 0.0816	784.14
362.66 K, 25028 kPa, x2 = 0.0816	785.05
362.67 K, 16036 kPa, x2 = 0.7274	743.56
362.67 K, 17030 kPa, x2 = 0.7274	749.82
362.67 K, 18000 kPa, x2 = 0.7274	755.36
362.67 K, 19028 kPa, x2 = 0.7274	760.67
362.67 K, 20033 kPa, x2 = 0.7274	765.6
362.67 K, 21074 kPa, x2 = 0.7274	770.32
362.67 K, 22015 kPa, x2 = 0.7274	774.34
362.67 K, 23077 kPa, x2 = 0.7274	778.68
362.67 K, 24033 kPa, x2 = 0.7274	782.39
362.67 K, 25155 kPa, x2 = 0.7274	786.55
362.76 K, 15032 kPa, x2 = 0.6054	774.3
362.76 K, 16035 kPa, x2 = 0.6054	777.11
362.76 K, 17040 kPa, x2 = 0.6054	779.89
362.76 K, 18044 kPa, x2 = 0.6054	782.5
362.76 K, 19042 kPa, x2 = 0.6054	785.04
362.76 K, 20068 kPa, x2 = 0.6054	787.6
362.76 K, 21079 kPa, x2 = 0.6054	790.03
362.76 K, 22029 kPa, x2 = 0.6054	792.27
362.76 K, 23044 kPa, x2 = 0.6054	794.59
362.76 K, 24071 kPa, x2 = 0.6054	796.88
362.76 K, 25065 kPa, x2 = 0.6054	799.05
362.79 K, 7017 kPa, x2 = 0.1347	768.35
362.79 K, 7974 kPa, x2 = 0.1347	769.41
362.79 K, 9023 kPa, x2 = 0.1347	770.53
362.79 K, 9999 kPa, x2 = 0.1347	771.53
362.79 K, 10899 kPa, x2 = 0.1347	772.5
362.79 K, 12022 kPa, x2 = 0.1347	773.68
362.79 K, 13018 kPa, x2 = 0.1347	774.7
362.79 K, 14016 kPa, x2 = 0.1347	775.72
362.79 K, 15031 kPa, x2 = 0.1347	776.75
362.79 K, 16022 kPa, x2 = 0.1347	777.7
362.79 K, 17016 kPa, x2 = 0.1347	778.71
362.79 K, 18017 kPa, x2 = 0.1347	779.67
362.79 K, 19013 kPa, x2 = 0.1347	780.6
362.79 K, 20017 kPa, x2 = 0.1347	781.57
362.79 K, 21040 kPa, x2 = 0.1347	782.53
362.79 K, 22011 kPa, x2 = 0.1347	783.41
362.79 K, 23022 kPa, x2 = 0.1347	784.34
362.79 K, 24039 kPa, x2 = 0.1347	785.29
362.79 K, 25030 kPa, x2 = 0.1347	786.19
